pIC50: −log10 of the molar value.
How the values were obtained:
RPMI-8226 = assay: Cytotoxicity against human RPMI8226 cells after 48 hrs by trypan blue dye exclusion assay; format: functional; conditions: RPMI-8226, 48 h
NCI-H460 = assay: Cytotoxicity against human NCI-H460 cells after 48 hrs by trypan blue dye exclusion assay; format: functional; conditions: NCI-H460, 48 h
NCI-H522 = assay: Cytotoxicity against human NCI-H522 cells after 48 hrs by trypan blue dye exclusion assay; format: functional; conditions: NCI-H522, 48 h
SF-268 = assay: Cytotoxicity against human SF268 cells after 48 hrs by trypan blue dye exclusion assay; format: functional; conditions: SF-268, 48 h
SK-MEL-2 = assay: Cytotoxicity against human SK-MEL-2 cells after 48 hrs by trypan blue dye exclusion assay; format: functional; conditions: SK-MEL-2, 48 h
UACC-257 = assay: Cytotoxicity against human UACC257 cells after 48 hrs by trypan blue dye exclusion assay; format: functional; conditions: UACC-257, 48 h
OVCAR-3 = assay: Cytotoxicity against human OVCAR3 cells after 48 hrs by trypan blue dye exclusion assay; format: functional; conditions: OVCAR-3, 48 h
OVCAR-4 = assay: Cytotoxicity against human OVCAR4 cells after 48 hrs by trypan blue dye exclusion assay; format: functional; conditions: OVCAR-4, 48 h
OVCAR-5 = assay: Cytotoxicity against human OVCAR5 cells after 48 hrs by trypan blue dye exclusion assay; format: functional; conditions: OVCAR-5, 48 h
OVCAR-8 = assay: Cytotoxicity against human OVCAR8 cells after 48 hrs by trypan blue dye exclusion assay; format: functional; conditions: OVCAR-8, 48 h
NCI/ADR-RES = assay: Cytotoxicity against human NCI/ADR-RES cells after 48 hrs by trypan blue dye exclusion assay; format: functional
TK-10 = assay: Cytotoxicity against human TK10 cells after 48 hrs by trypan blue dye exclusion assay; format: functional; conditions: TK-10, 48 h
MCF7 = assay: Cytotoxicity against human MCF7 cells after 48 hrs by trypan blue dye exclusion assay; format: functional; conditions: MCF7, 48 h
MDA-MB-231 = assay: Cytotoxicity against human MDA-MB-231 cells after 48 hrs by trypan blue dye exclusion assay; format: functional; conditions: MDA-MB-231, 48 h
Jurkat = assay: Cytotoxicity against human Jurkat cells; format: functional, cell-based

In the case of `COc1ccc2c(c1)OC1=C(C(=O)OC1)C2c1cc(OC)c2c(c1)OCO2` (stereo unspecified), the GI50 (RPMI-8226) was 0.0485 µM, the GI50 (NCI-H460) was 0.0366 µM and the GI50 (NCI-H522) was < 0.01 µM. For the same molecule, the GI50 (SF-268) was 0.078 µM, the GI50 (SK-MEL-2) was 0.0343 µM and the GI50 (UACC-257) was 21.3 µM. It also gave a GI50 (OVCAR-3) of 0.0209 µM, a TGI (OVCAR-3) of 0.0446 µM and a GI50 (OVCAR-4) of 0.0598 µM. It also gave a GI50 (OVCAR-5) of 0.153 µM, a GI50 (OVCAR-8) of 0.0556 µM and a GI50 (NCI/ADR-RES) of 0.0186 µM. It also gave a GI50 (TK-10) of 0.268 µM, a GI50 (MCF7) of 0.0291 µM and a GI50 (MDA-MB-231) of 0.0614 µM. The pIC50 (Jurkat) was 7.26.

From ChEMBL document CHEMBL2010711, “Synthesis and comparative evaluation of 4-oxa- and 4-aza-podophyllotoxins as antiproliferative microtubule destabilizing agents” (Bioorg Med Chem Lett, 2012)
